Source: patent US20140335166A1, “Methods of Making and Using Nano Scale Particles” (priority 2013, published 2014)

Tested on: Cultured liver cells
Experiment: Phosphatidylcholine biosynthesis as measure of cell function in cultured liver cells incubated with ethanol
Format: cell-based
Conditions: 100 mM ethanol, 24 hours
Experimental: As an example of the effectiveness of using the PPC, the following experiments were conducted. Cultured liver cells were incubated for 24 hours with 100 mM ethanol in the presence of (1) water, (2) VEP/EPC (egg phosphatidylcholine), or (3) VEP/PPC. Agent-dependent alterations in cell function were determined by measuring phosphatidylcholine biosynthesis. Similar results were obtained in the three separate preparations of cultured cells, all of which are reflected in the Table 1 set forth below. Control cells are expressed as 100%, meaning full cellular function. A reduction below 100% represents a decrease in cell function.

CCO [Ethanol]
reduction in cell function from control cells: 63% | % Control ± SEM (phosphatidylcholine biosynthesis, cell function) (control cells = 100%, VEP/EPC (15 Mm EPC), VEP/PPC (15 Mm VEP and 30 Mm PPC)): 37 ± 1 %
